B1: BDNF: brain derived neurotrophic factor (protein, UniProt P23560 19-247, looked up)
Neurotrophic factor BDNF …: APMKEANIRGQGGLAYPGVRTHGTLESVNGPKAGSRGLTSLADTFEHVIEELLDEDQKVRPNEENNKDADLYTSRVMLSSQVPLEPPLLFLLEEYKNYLDAANMSMRVRRHSDPARRGELSVCDSISEWVTAADKKTAVDMSGGTVTVLEKVPVSKGQLKQYFYETKCNPMGYTKEGCRGIDKRHWNSQCRTTQSYVRALTMDSKKRIGWRFIRIDTSCVCTLTIKRGR

What was measured:
[1] = test system: rat hippocampal cultures; settings: Ramsey et al., 2005; Xing et al., 2007; cited from earlier work
[2] = test system: synaptic transmission; assay: Synaptic transmission during direct application of the molecules; format: cell-based, mouse; settings: direct application of the molecule
Source text: rhIGF1 produced a similar improvement as (1-3)IGF-1 in all maturational signatures measured, including (A) synaptic transmission levels, and (B) circuit stability (by preventing ocular dominance plasticity) in P60 MeCP2 KO mice.
The above data focused on the (1-3)IGF-1 fragment of IGF1 to promote IGF1 signaling. We also have tested the effect of the full-length IGF1 peptide already approved for pediatric administration in human patients (for short stature indications). We have verified a correspondence in the effects of (1-3)IGF-1 and recombinant human IGF1 (rhIGF1).

[3] = test system: visual cortex of adult MeCP2+/− mice; assay: Ocular dominance plasticity after monocular deprivation, optical imaging of intrinsic signals; format: in vivo, mouse; settings: 180 μg/kg/day i.p. starting at 2 weeks; P60 MeCP2 KO mice
[4] = in vivo; cited from earlier work

Molecule | excitatory postsynaptic currents [1] | synaptic activity / synaptic transmission levels (FIG. 9A) [2] | maturation of cortical circuitry during ocular dominance plasticity (FIG. 9B) [3] | crossing the blood-brain barrier [4]
rhIGF1: full-length IGF1 peptide already approved for pediatric administration in human patients; recombinant human IGF1 | elevate excitatory postsynaptic currents significantly | striking enhancements of synaptic activity | promoted to similar degrees | capable of crossing the blood-brain barrier
B1 | – | – | – | poor efficiency at crossing the blood brain barrier

Reference: patent US7994127B2, “Treatment of rett syndrome” (Massachusetts Institute of Technology, priority 2007, dated 2011)
